Key:
[1] = system: serum ALT activity induced by CCl4; test: Protective effect against acute hepatic damage induced by carbon tetrachloride (serum ALT); assay type: in vivo; details: Mus musculus; mice, 50 mg/kg oral, 6 h before CCl4 (50 ul/kg oral); ALT 24 h after CCl4; read-out: Inhibitory (%): protective effect against increase of serum ALT activity induced by CCl4
Description: Principle; Carbon tetrachloride (CCl4) is a well-known hepatotoxic agent, thus widely used to produce experimental animal models for screening the potential drugs acting upon hepatic diseases. In this experiment test compounds were administered to mice prior to treatment with CCl4. 24 Hours after the CCl4 treatment, the animals were sacrificed and serum alanine aminotransferase (ALT) levels were determined. The hepatoprotective effect of a test compound was evaluated by the suppressive action against the increase of serum ALT induced by CCl4.
Method; The experimental animals were divided into normal, CCl4 treated and test compound treated groups. Each group consisted of 8 mice with body weight of 20-25 grams. The test compounds were suspended in 0.2% sodium carboxy methyl cellulose (CMC-Na) solution and administered orally at the dose of 50 mg/125 ml/kg body weight. Only the vehicle, 0.2% CMC-Na solution, was administered to the normal and to the CCl4 treated group instead of the test compound suspension. 6 Hours after the drug administration, the CCl4 solution in olive oil was administered orally to the CCl4 treated- and the test compound treated group at the dose of 50 ul/25 ml olive oil/kg body weight. The normal group was administered olive oil only at the same dose. 24 Hours after the CCl4 administration, blood samples were collected from the orbital sinus of the animals and the sera were obtained by centrifugation The serum ALT activities were monitored using an automatic blood analyzer (Gilford, SBA 300). The hepatoprotective effect of the test compounds was expressed by the suppressive percentage against the increase of serum ALT level induced by CCl4 calculated by the following formula; [formula]

[2] = Acute oral toxicity, median lethal dose (LD50); details: mouse, in vivo, male ICR mice, deaths counted for 14 days
Description: Each test compound was suspended in a 0.2% CMC-Na solution in various concentrations to make test suspension. The test suspensions were administered orally to male ICR mice (10 in each group) at various doses. The number of dead mice was counted for 14 days and the value of mediam lethal dose (LD50, g/kg) was calculated by the Hitchifield-Wilcoxon method.

Cc1ccc(NC(=O)C(C(=O)OC(C)C)=C2SC=CS2)cc1 [17(e), Isopropyl 2-(1,3-dithiol-2-ylidene)-2-[N-(4-methylphenyl)carbamoyl]acetate]
inhibition in vivo at 50 mg/kg [1]: 100%

Cc1cccc(NC(=O)C(C(=O)OC(C)C)=C2SC=CS2)c1C [17(f), Isopropyl 2-(1,3-dithiol-2-ylidene)-2-[N-(2,3-dimethylphenyl)carbamoyl]acetate]
inhibition in vivo at 50 mg/kg [1]: 92%

CC(C)OC(=O)C(C(=O)Nc1ccc(Cl)cc1)=C1SC=CS1 [17(g), Isopropyl 2-(1,3-dithiol-2-ylidene)-2-[N-(4-chlorophenyl)carbamoyl]acetate]
inhibition in vivo at 50 mg/kg [1]: 81.5%
LD50 at 336 h [2]: > 5000 mg/kg

CC(C)OC(=O)C(C(=O)Nc1cccc(Cl)c1)=C1SC=CS1 [17(h), Isopropyl 2-(1,3-dithiol-2-ylidene)-2-[N-(3-chlorophenyl)carbamoyl]acetate]
inhibition in vivo at 50 mg/kg [1]: 97.5%
LD50 at 336 h [2]: > 5000 mg/kg

CC(C)OC(=O)C(C(=O)Nc1ccc(F)cc1)=C1SC=CS1 [17(i), Isopropyl 2-(1,3-dithiol-2-ylidene)-2-[N-(4-fluorophenyl)carbamoyl]acetate]
inhibition in vivo at 50 mg/kg [1]: 89.8%
LD50 at 336 h [2]: > 5000 mg/kg

CC(C)OC(=O)C(C(=O)Nc1ccccc1F)=C1SC=CS1 [17(j), Isopropyl 2-(1,3-dithiol-2-ylidene)-2-[N-(2-fluorophenyl)carbamoyl]acetate]
LD50 at 336 h [2]: > 5000 mg/kg

COc1ccc(NC(=O)C(C(=O)OC(C)C)=C2SC=CS2)cc1 [17(l), Isopropyl 2-(1,3-dithiol-2-ylidene)-2-[N-(4-methoxyphenyl)carbamoyl]acetate]
inhibition in vivo at 50 mg/kg [1]: 99.6%
LD50 at 336 h [2]: > 5000 mg/kg

CC(=O)Nc1ccc(NC(=O)C(C(=O)OC(C)C)=C2SC=CS2)cc1 [17(q), Isopropyl 2-(1,3-dithiol-2-ylidene)-2-[N-(4-acetamidophenyl)carbamoyl]acetate]
inhibition in vivo at 50 mg/kg [1]: 78.2%
LD50 at 336 h [2]: > 5000 mg/kg

CC(=O)Nc1cccc(NC(=O)C(C(=O)OC(C)C)=C2SC=CS2)c1 [17(r), Isopropyl 2-(1,3-dithiol-2-ylidene)-2-[N-(3-acetamidophenyl)carbamoyl]acetate]
inhibition in vivo at 50 mg/kg [1]: 46.6%

CC(C)OC(=O)C(C(=O)Nc1ccc(C(F)(F)F)cc1)=C1SC=CS1 [17(s), Isopropyl 2-(1,3-dithiol-2-ylidene)-2-[N-(4-trifluoromethylphenyl)carbamoyl]acetate]
inhibition in vivo at 50 mg/kg [1]: 100%
LD50 at 336 h [2]: > 4000 mg/kg

CC(C)OC(=O)C(C(=O)Nc1cccc(C(F)(F)F)c1)=C1SC=CS1 [17(t), Isopropyl 2-(1,3-dithiol-2-ylidene)-2-[N-(3-trifluoromethylphenyl)carbamoyl]acetate]
inhibition in vivo at 50 mg/kg [1]: 96%

CC(C)OC(=O)C(C(=O)Nc1ccnc(O)n1)=C1SC=CS1 [18(m)]
inhibition in vivo at 50 mg/kg [1]: 12.8%
LD50 at 336 h [2]: > 5000 mg/kg

CC(C)OC(=O)C(C(=O)Nc1nc2ccccc2s1)=C1SC=CS1 [18(n), Isopropyl 2-(1,3-dithiol-2-ylidene)-2-[N-(2-benzothiazolyl)carbamoyl]acetate]
inhibition in vivo at 50 mg/kg [1]: 15.2%
LD50 at 336 h [2]: > 5000 mg/kg

Cc1nc(NC(=O)C(C(=O)OC(C)C)=C2SC=CS2)sc1C [19(f), Isopropyl 2-(1,3-dithiol-2-ylidene)-2-[N-(4,5-dimethyl-2-thiazolyl)carbamoyl]acetate]
inhibition in vivo at 50 mg/kg [1]: 91.4%
LD50 at 336 h [2]: > 5000 mg/kg

CC(C)OC(=O)C(C(=O)Nc1ncccn1)=C1SC=CS1 [21(d), Isopropyl 2-1,3-dithiol-2-ylidene)-2-(N-pyrimidin-2-ylcarbamoyl) acetate]
inhibition in vivo at 50 mg/kg [1]: 99.8%
LD50 at 336 h [2]: 3200 mg/kg

CC(C)OC(=O)C(C(=O)Nc1cccc(O)c1)=C1SC=CS1 [22(c), Isopropyl 2-(1,3-dithiol-2-ylidene)-2-[N-(3-hydroxyphenyl)carbamoyl]acetate]
inhibition in vivo at 50 mg/kg [1]: 93%
LD50 at 336 h [2]: > 5000 mg/kg

CC(C)OC(=O)C(C(=O)Nc1ccccc1O)=C1SC=CS1 [22(d), Isopropyl 2-(1,3-dithiol-2-ylidene)-2-[N-(2-hydroxyphenyl)carbamoyl]acetate]
inhibition in vivo at 50 mg/kg [1]: 16.2%

CC(C)OC(=O)C(C(=O)NC1=NCCS1)=C1SC=CS1 [22(e), Isopropyl 2-(1,3-dithiol-2-ylidene)-2-[N-(2-thiazolin-2-yl)carbamoyl]acetate]
inhibition in vivo at 50 mg/kg [1]: 99.4%
LD50 at 336 h [2]: > 5000 mg/kg

CC(=O)Oc1ccc(NC(=O)C(C(=O)OC(C)C)=C2SC=CS2)cc1 [24(a), Isopropyl 2-(1,3-dithiol-2-ylidene)-2-[N-(4-acetoxyphenyl)carbamoyl]acetate]
inhibition in vivo at 50 mg/kg [1]: 102%

CC(=O)Oc1cccc(NC(=O)C(C(=O)OC(C)C)=C2SC=CS2)c1 [24(b)]
inhibition in vivo at 50 mg/kg [1]: 98%
LD50 at 336 h [2]: > 5000 mg/kg

CC(=O)Oc1ccccc1NC(=O)C(C(=O)OC(C)C)=C1SC=CS1 [24(c), Isopropyl 2-(1,3-dithiol-2ylidene)-2-[N-(2-acetoxyphenyl)carbamoyl]acetate]
inhibition in vivo at 50 mg/kg [1]: 22.8%

CC(C)OC(=O)C(C(=O)N1CCOCC1)=C1SC=CS1 [26(a), Isopropyl 2-(1,3-dithiol-2-ylidene)-2-(4-morpholinylcarbonyl)acetate]
inhibition in vivo at 50 mg/kg [1]: 66.5%

CC(C)OC(=O)C(C(=O)N1CCN(C)CC1)=C1SC=CS1 [26(b), Isopropyl 2-(1,3-dithiol-2-ylidene)-2-[(4-methylpiperazin-1-yl)carbonyl]acetate]
inhibition in vivo at 50 mg/kg [1]: 46%

CC(C)OC(=O)C(C(=O)N1CCCC1)=C1SC=CS1 [26(c), Isopropyl 2-(1,3-dithiol-2-ylidene)-2-(1-pryrrolidinylcarbaonyl) acetate]
inhibition in vivo at 50 mg/kg [1]: 90.5%

CC(C)OC(=O)C(C(=O)n1ccnc1)=C1SC=CS1 [26(d), Isopropyl 2-(1,3-dithiol-2-ylidene)-2-(1-imidazolylcarbaony)acetate]
inhibition in vivo at 50 mg/kg [1]: 98%

CC(C)OC(=O)C(C(N)=O)=C1SC=CS1 [Example 9, Isopropyl 2-(1,3-dithiol-2-ylidene)-2-carbamoylacetate]
inhibition in vivo at 50 mg/kg [1]: 65.5%

CNC(=O)C(C(=O)OC(C)C)=C1SC=CS1 [Example 10, Isopropyl 2-(1,3-dithiol-2-ylidene)-2-(N-methylcarbamoyl) acetate]
inhibition in vivo at 50 mg/kg [1]: 92%

CC(C)OC(=O)C(C(=O)NC1CCCCC1)=C1SC=CS1 [Example 12, Isopropyl 2-(1,3-dithiol-2-ylidene)-2-(N-cyclohexylcarbamoyl)acetate]
inhibition in vivo at 50 mg/kg [1]: 98%

CCN(CC)C(=O)C(C(=O)OC(C)C)=C1SC=CS1 [Example 13, Isopropyl 2-(1,3-dithiol-2-ylidene)-2-(N,N-diethylcarbamoyl) acetate]
inhibition in vivo at 50 mg/kg [1]: 55.6%

CC(C)OC(=O)C(C(=O)N1CCCC1C(=O)O)=C1SC=CS1 (stereo not drawn) [Example 15, Isopropyl 2-(1,3-dithiol-2-ylidene)-2-[(2-carboxypyrrolidin-1-yl)carbonyl]acetate]
inhibition in vivo at 50 mg/kg [1]: 14%

CC(C)OC(=O)C(C(=O)N(C)c1ccccc1)=C1SC=CS1 [Example 16, Isopropyl 2-(1,3-dithiol-2-ylidene)-2-(N-methyl-N-phenylcarbamoyl)acetate]
inhibition in vivo at 50 mg/kg [1]: 47.9%

COc1cccc(NC(=O)C(C(=O)OC(C)C)=C2SC=CS2)c1 [Example 17(o), isopropyl 2-(1,3-dithiol-2-ylidene)-2-[N-(3-methoxyphenyl)carbamoyl]acetate]
inhibition in vivo at 50 mg/kg [1]: 100%

Reference: patent US5158950A, “1,3-dithiol-2-ylidene derivatives and process for the preparation thereof” (Yuhan Corporation, Ltd., priority 1987, dated 1992)
